Data taken from PubChem BioAssay (NCI).
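Method: 48-hour compound exposure of cells in 96-well plates, five concentrations, linear interpolation of endpoints. GI50: concentration for 50% inhibition of growth. TGI marks complete inhibition of growth.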

Test system: 786-0 renal
Experiment: NCI-60 cell line screen, 48 h

SMILES	GI50	TGI
CCCCOC(=O)C1OC(O[C@H]2CCC3(C)C(CCC4(C)C3CC=C3C5CC(C)(C)CCC5(C(=O)O)CC[C@]34C)C2(C)C)C(OC2OC(CO)C(O)C(O)C2O)C(OC2OC(CO)C(O)C(O)C2O)C1O (some centres undefined)	26.2 µM	70.9 µM
Cc1nc2ccccc2c(=O)n1-c1ccccc1I	–	> 100 µM
CN1C(=O)C(C)(C)C2(SC(C)(C)C2(C)C)N(C)C1=S (centres undefined)	–	> 100 µM
CC(=O)NNc1nc(C)c(C(=O)NNC(=O)C(=O)Nc2ccc(Cl)cc2)s1	–	> 100 µM
CC1(C)CCc2c(c3c(c4c(=O)c(O)c(-c5ccc(O)cc5)oc24)OC(C)(C)CC3)O1	37.7 µM	> 100 µM
CN/N=C(/Cc1occc(=O)c1O)C(=O)Nc1ccccc1C	–	> 100 µM
Cc1coc2c1CC1(C)C(CCC(O)C1C)C2 (centres undefined)	–	> 100 µM
CC1=C(C(=O)NCc2ccccc2)C(/C=C/c2ccccc2)C(C(=O)NCc2ccccc2)=C(C)N1	–	> 100 µM
N#CCCN(CCC#N)c1ccc(/C=C2\N=C(c3cc([N+](=O)[O-])ccc3Cl)OC2=O)cc1	–	> 100 µM
CSc1nc2c(c(=O)[nH]1)N=C1c3ccccc3C(=O)C1C(c1ccccc1)N2 (centres undefined)	6.44 µM	> 100 µM
CC1=C(C(=O)Nc2ccc(Cl)c(Cl)c2)C(c2cccc(Oc3ccccc3)c2)NC(=S)N1 (centres undefined)	8.29 µM	17.4 µM
Cc1cc(C)nc(NS(=O)(=O)c2ccc(NC(=O)c3ccc(Cl)c4c(Nc5ccc(S(=O)(=O)Nc6nc(C)cc(C)n6)cc5)c5ccccc5nc34)cc2)n1	–	20.4 µM
N#CC(c1ccc(Cl)cc1)c1cccc(C(C#N)c2ccc(Cl)cc2)n1 (centres undefined)	–	> 100 µM
O=C1/C(=C/c2ccccc2)CN(C(=O)C(Cl)(Cl)Cl)C/C1=C\c1ccccc1	–	9.42 µM
Cc1ccc(NC2=C(Cl)C(=O)N(Cc3ccccc3)C2=O)cc1O	22.6 µM	> 100 µM
C=C1C(=O)C23CC1CCC2C12CO[C@@H]4OCC(C)(CC[C@@H]1OC3=O)C42 (some centres undefined)	–	5.71 µM

Test system: UACC-257 melanoma
Experiment: NCI-60 cell line screen, 48 h

SMILES	TGI	GI50
CCN(CCO)CC1CCCC2CCCCC21 (centres undefined)	> 100 µM	–
CC[C@@]1(O)C[C@H](OC2CC(N(C)C)C(O)C(C)O2)c2c(O)c3c(c(O)c2[C@H]1OC1CC(N(C)C)C(O)C(C)O1)C(=O)c1cccc(O)c1C3=O (some centres undefined)	–	< 0.01 µM
COC1(OC)CCC2C1C1CCC(OC)(OC)C21 (centres undefined)	> 50 µM	–
NNC(=O)Nc1cccnc1	> 100 µM	–
CC/C=C\CCC/C=C1/C(=O)C=C[C@@H]1C/C=C\CCCC(=O)OC	20.5 µM	7.55 µM
COc1ccc(-c2nc3sccn3c2/C(N)=N/C(=N)N)cc1OC	> 100 µM	40.7 µM
CCCCCCCCCCCOc1ccc(C(=O)C(=O)c2ccc(OCCCCCCCCCCC)c(OCCCCCCCCCCC)c2)cc1OCCCCCCCCCCC	> 100 µM	–
Cn1cnc([N+](=O)[O-])c1Sc1nnc(-c2cccnc2)n1C	23 µM	–
CCOC(=O)C1=C(C)NC(=S)NC1c1ccccc1 (centres undefined)	> 100 µM	–
COC1=CC(=O)c2nc(-c3ccncc3)[nH]c2C1=O	> 100 µM	> 100 µM
O=C(/C=C/c1ccccc1)NC1C=Nc2ccc(Cl)cc2NC1=O (centres undefined)	87 µM	–
COC1CCC2C(NS(=O)(=O)c3ccc(C)cc3)CCCC2O1 (centres undefined) (tested in a mixture with another compound)	> 34.5 µM	–
CC(C)C/C(CC(=O)CCC(=O)Nc1ccccc1[N+](=O)[O-])=N\NC(=O)c1cc2ccccc2cc1O	> 100 µM	–
O=C1/C(=C/c2cccc([N+](=O)[O-])c2)COc2ccc(O)cc21	6.66 µM	2.37 µM
O=C(O)c1ccccc1[Se][Se]c1ccccc1C(=O)O	> 100 µM	–
O=C(O)CCc1coc2ccc(O)cc12	> 100 µM	–
Clc1cc2nsnc2c(Cl)n1	72.3 µM	–

SMILES	TGI	GI50
N#CC1C(C#N)C2(c3ccccc3)C(c3ccccc3)=NN(c3ccccc3)CC12 (centres undefined)	> 100 µM	–
COc1cc(Cc2cnc(/N=C3\C(=O)N(CN4CCN(c5c(F)cc6c(=O)c(C(=O)O)cn(C7CC7)c6c5OC)CC4C)c4ccc(F)cc43)nc2N)cc(OC)c1OC (centres undefined)	44.1 µM	22.3 µM
Cc1cccc2c(=O)cc(-c3ccccc3)[nH]c12	> 100 µM	–
CCCCOC(=O)C1OC(O[C@H]2CCC3(C)C(CCC4(C)C3CC=C3C5CC(C)(C)CCC5(C(=O)O)CC[C@]34C)C2(C)C)C(OC2OC(CO)C(O)C(O)C2O)C(OC2OC(CO)C(O)C(O)C2O)C1O (some centres undefined)	62.2 µM	26.2 µM
Cc1nc2ccccc2c(=O)n1-c1ccccc1I	> 100 µM	–
CN1C(=O)C(C)(C)C2(SC(C)(C)C2(C)C)N(C)C1=S (centres undefined)	> 100 µM	–
CC(=O)NNc1nc(C)c(C(=O)NNC(=O)C(=O)Nc2ccc(Cl)cc2)s1	> 100 µM	–
CN/N=C(/Cc1occc(=O)c1O)C(=O)Nc1ccccc1C	> 100 µM	–
Cc1coc2c1CC1(C)C(CCC(O)C1C)C2 (centres undefined)	> 100 µM	–
CC1=C(C(=O)NCc2ccccc2)C(/C=C/c2ccccc2)C(C(=O)NCc2ccccc2)=C(C)N1	> 100 µM	–
N#CCCN(CCC#N)c1ccc(/C=C2\N=C(c3cc([N+](=O)[O-])ccc3Cl)OC2=O)cc1	44.1 µM	–
CC1=C(C(=O)Nc2ccc(Cl)c(Cl)c2)C(c2cccc(Oc3ccccc3)c2)NC(=S)N1 (centres undefined)	22 µM	9.73 µM
Cc1cc(C)nc(NS(=O)(=O)c2ccc(NC(=O)c3ccc(Cl)c4c(Nc5ccc(S(=O)(=O)Nc6nc(C)cc(C)n6)cc5)c5ccccc5nc34)cc2)n1	81.6 µM	–
N#CC(c1ccc(Cl)cc1)c1cccc(C(C#N)c2ccc(Cl)cc2)n1 (centres undefined)	> 100 µM	–
O=C1/C(=C/c2ccccc2)CN(C(=O)C(Cl)(Cl)Cl)C/C1=C\c1ccccc1	2.92 µM	–
Cc1ccc(NC2=C(Cl)C(=O)N(Cc3ccccc3)C2=O)cc1O	> 100 µM	39.5 µM
C=C1C(=O)C23CC1CCC2C12CO[C@@H]4OCC(C)(CC[C@@H]1OC3=O)C42 (some centres undefined)	10.2 µM	–

Test system: SK-MEL-5 melanoma
Experiment: NCI-60 cell line screen, 48 h

SMILES	TGI	GI50
CCN(CCO)CC1CCCC2CCCCC21 (centres undefined)	> 100 µM	–
CC[C@@]1(O)C[C@H](OC2CC(N(C)C)C(O)C(C)O2)c2c(O)c3c(c(O)c2[C@H]1OC1CC(N(C)C)C(O)C(C)O1)C(=O)c1cccc(O)c1C3=O (some centres undefined)	–	< 0.01 µM
COC1(OC)CCC2C1C1CCC(OC)(OC)C21 (centres undefined)	> 50 µM	–
NNC(=O)Nc1cccnc1	> 100 µM	–
CC/C=C\CCC/C=C1/C(=O)C=C[C@@H]1C/C=C\CCCC(=O)OC	3.5 µM	1.88 µM
COc1ccc(-c2nc3sccn3c2/C(N)=N/C(=N)N)cc1OC	44.5 µM	21.3 µM
CCCCCCCCCCCOc1ccc(C(=O)C(=O)c2ccc(OCCCCCCCCCCC)c(OCCCCCCCCCCC)c2)cc1OCCCCCCCCCCC	> 100 µM	–
Cn1cnc([N+](=O)[O-])c1Sc1nnc(-c2cccnc2)n1C	35.4 µM	–
CCOC(=O)C1=C(C)NC(=S)NC1c1ccccc1 (centres undefined)	> 100 µM	–
COC1=CC(=O)c2nc(-c3ccncc3)[nH]c2C1=O	> 100 µM	> 100 µM
O=C(/C=C/c1ccccc1)NC1C=Nc2ccc(Cl)cc2NC1=O (centres undefined)	51.6 µM	–
COC1CCC2C(NS(=O)(=O)c3ccc(C)cc3)CCCC2O1 (centres undefined) (tested in a mixture with another compound)	19.4 µM	–
CC(C)C/C(CC(=O)CCC(=O)Nc1ccccc1[N+](=O)[O-])=N\NC(=O)c1cc2ccccc2cc1O	67.5 µM	–
O=C1/C(=C/c2cccc([N+](=O)[O-])c2)COc2ccc(O)cc21	3.37 µM	1.8 µM
O=C(O)c1ccccc1[Se][Se]c1ccccc1C(=O)O	> 100 µM	–
COc1cc(CNc2cnc3cc(N)cc(N)c3n2)cc(OC)c1	36.1 µM	18.7 µM
O=C(O)CCc1coc2ccc(O)cc12	> 100 µM	–
Clc1cc2nsnc2c(Cl)n1	32.7 µM	–

SMILES	TGI	GI50
N#CC1C(C#N)C2(c3ccccc3)C(c3ccccc3)=NN(c3ccccc3)CC12 (centres undefined)	> 100 µM	–
COc1cc(Cc2cnc(/N=C3\C(=O)N(CN4CCN(c5c(F)cc6c(=O)c(C(=O)O)cn(C7CC7)c6c5OC)CC4C)c4ccc(F)cc43)nc2N)cc(OC)c1OC (centres undefined)	35.2 µM	18.3 µM
Cc1cccc2c(=O)cc(-c3ccccc3)[nH]c12	78.4 µM	–
CCCCOC(=O)C1OC(O[C@H]2CCC3(C)C(CCC4(C)C3CC=C3C5CC(C)(C)CCC5(C(=O)O)CC[C@]34C)C2(C)C)C(OC2OC(CO)C(O)C(O)C2O)C(OC2OC(CO)C(O)C(O)C2O)C1O (some centres undefined)	> 100 µM	33.1 µM
Cc1nc2ccccc2c(=O)n1-c1ccccc1I	> 100 µM	–
CC(=O)NNc1nc(C)c(C(=O)NNC(=O)C(=O)Nc2ccc(Cl)cc2)s1	> 100 µM	–
CC1(C)CCc2c(c3c(c4c(=O)c(O)c(-c5ccc(O)cc5)oc24)OC(C)(C)CC3)O1	> 100 µM	> 100 µM
CN/N=C(/Cc1occc(=O)c1O)C(=O)Nc1ccccc1C	> 100 µM	–
Cc1coc2c1CC1(C)C(CCC(O)C1C)C2 (centres undefined)	> 100 µM	–
CC1=C(C(=O)NCc2ccccc2)C(/C=C/c2ccccc2)C(C(=O)NCc2ccccc2)=C(C)N1	> 100 µM	–
N#CCCN(CCC#N)c1ccc(/C=C2\N=C(c3cc([N+](=O)[O-])ccc3Cl)OC2=O)cc1	33.4 µM	–
CSc1nc2c(c(=O)[nH]1)N=C1c3ccccc3C(=O)C1C(c1ccccc1)N2 (centres undefined)	67.2 µM	1.5 µM
CC1=C(C(=O)Nc2ccc(Cl)c(Cl)c2)C(c2cccc(Oc3ccccc3)c2)NC(=S)N1 (centres undefined)	15 µM	7.89 µM
Cc1cc(C)nc(NS(=O)(=O)c2ccc(NC(=O)c3ccc(Cl)c4c(Nc5ccc(S(=O)(=O)Nc6nc(C)cc(C)n6)cc5)c5ccccc5nc34)cc2)n1	73.1 µM	–
O=C1/C(=C/c2ccccc2)CN(C(=O)C(Cl)(Cl)Cl)C/C1=C\c1ccccc1	2.36 µM	–
Cc1ccc(NC2=C(Cl)C(=O)N(Cc3ccccc3)C2=O)cc1O	37.5 µM	15.5 µM
C=C1C(=O)C23CC1CCC2C12CO[C@@H]4OCC(C)(CC[C@@H]1OC3=O)C42 (some centres undefined)	28.3 µM	–
